According to patent publication US10195185B2, “3-(1H-imidazo[4,5-C]pyridin-2-yl)-1H-pyrazolo[4,3-B]pyridines and therapeutic uses thereof” (Samumed, LLC, priority 2015, dated 2019):

How the values were obtained:
Assay type in all cases: cell-based
[1] = tested on: IL-6 in human monocyte cell line (THP-1 cells); assay: IL-6 inhibition in LPS-stimulated THP-1 cells (HTRF); settings: IL-6 in LPS-stimulated THP-1 cells; for EC50: HTRF; for inhibition at 10 µM: read-out: percent inhibition in brackets beside EC50 >10 μM
Summary of the method: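 THP-1 cells, serum-reduced (1% FBS) for 24 h, were preincubated with compound (10-point 1:3 series from 10 μM, 0.1% DMSO) for 2 h, then stimulated with 500 ng/mL LPS for 22 h at 37° C. IL-6 was read by HTRF (665/620 nm ratio) and normalized to DMSO. EC50 from four-parameter fit; % inhibition at 10 μM given if EC50 >10 μM.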

SW480 colon cancer cells = assay: Cell viability assay (CellTiter-Blue), four days; settings: Homo sapiens, 96 h; for inhibition at 10 µM: read-out: percent inhibition at 10 μM (given for EC50 of >10 μM); for EC50: CellTiter-Blue cell viability
Summary of the method: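 SW480 cells (~2×10^3 per well) were exposed to compound for four days at 37 °C/5% CO2, using 8-point 1:3 dilutions from 10 μM to 0.0045 μM in duplicate. Viability was read by resazurin reduction (CellTiter-Blue, ~3 h, Ex 560/Em 590 nm). EC50 came from non-linear regression; above 10 μM, percent inhibition at 10 μM is given.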

[2] = tested on: Wnt activity (Wnt-responsive human Sp5 promoter, TCF/LEF binding sites) in SW480 colon carcinoma cells; assay: Wnt activity screening assay: Sp5-Luc luciferase reporter gene in SW480 cells; settings: for EC50: 10-point dose-response from 10 μM, incubated overnight; for inhibition at 10 µM: given for EC50 of >10 μM, read-out: percent inhibition at 10 μM
Summary of the method: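 Luminescence (BrightGlo) was normalised to DMSO-only wells and fitted with a four-parameter variable-slope model for EC50; beyond 10 μM, % inhibition at 10 μM is given. Stable Sp5-Luc SW480 reporter cells, 4,000/well in 1% FBS, were exposed overnight at 37 °C to compounds, top 10 μM, 1:3 dilutions, 0.1% DMSO.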

| EC50 [1] | EC50 (SW480 colon cancer cells) | EC50 [2] | Compound | inhibition at 10 µM [1] | inhibition at 10 µM (SW480 colon cancer cells) | inhibition at 10 µM [2] |
| --- | --- | --- | --- | --- | --- | --- |
| > 10 µM | > 10 µM | > 10 µM | Cc1cn(-c2nccc3[nH]c(-c4n[nH]c5ccc(-c6cncc(NC(=O)C(C)(C)C)c6)nc45)nc23)cn1 [Compound 204, N-(5-(3-(4-(4-Methyl-1H-imidazol-1-yl)-1H-imidazo[4,5-c]pyridin-2-yl)-1H-pyrazolo[4,3-b]pyridin-5-yl)pyridin-3-yl)pivalamide] | 41.8% | 0% | 21% |
| > 10 µM | 0.624 µM | 0.211 µM | Cc1ncc(-c2ccc3[nH]nc(-c4nc5c(-c6ccoc6)nccc5[nH]4)c3n2)n1C [Compound 685, 5-(1,2-Dimethyl-1H-imidazol-5-yl)-3-(4-(furan-3-yl)-1H-imidazo[4,5-c]pyridin-2-yl)-1H-pyrazolo[4,3-b]pyridine] | 30.2% | – | – |
| > 10 µM | > 10 µM | > 10 µM | Cc1ccncc1-c1ccc2[nH]nc(-c3nc4c(-c5ccncc5)nccc4[nH]3)c2n1 [Compound 117, 5-(4-Methylpyridin-3-yl)-3-(4-(pyridin-4-yl)-1H-imidazo[4,5-c]pyridin-2-yl)-1H-pyrazolo[4,3-b]pyridine] | 33.1% | 19.6% | 28% |
| > 10 µM | > 10 µM | > 10 µM | CC(C)(C)CC(=O)Nc1cncc(-c2ccc3[nH]nc(-c4nc5cnccc5[nH]4)c3n2)c1 [Compound 268, N-(5-(3-(1H-Imidazo[4,5-c]pyridin-2-yl)-1H-pyrazolo[4,3-b]pyridin-5-yl)pyridin-3-yl)-3,3-dimethylbutanamide] | 19% | 0% | 9.5% |
| > 10 µM | 3.42 µM | 3.82 µM | c1cc2[nH]c(-c3n[nH]c4ccc(-c5cncc(CNCC6CCCC6)c5)nc34)nc2c(-c2ccoc2)n1 [Compound 333, 1-Cyclopentyl-N-((5-(3-(4-(furan-3-yl)-1H-imidazo[4,5-c]pyridin-2-yl)-1H-pyrazolo [4,3-b]pyridin-5-yl)pyridin-3-yl)methyl)methanamine] | 32.3% | – | – |
| > 10 µM | 3.8 µM | 4.2 µM | CCC(=O)Nc1cncc(-c2ccc3[nH]nc(-c4nc5c(N6CCCCC6)nccc5[nH]4)c3n2)c1 [Compound 169, N-(5-(3-(4-(Piperidin-1-yl)-1H-imidazo[4,5-c]pyridin-2-yl)-1H-pyrazolo [4,3-b]pyridin-5-yl)pyridin-3-yl)propionamide] | 42.6% | – | – |
| > 10 µM | > 10 µM | 1.22 µM | Fc1ccc(-c2nccc3[nH]c(-c4n[nH]c5ccc(-c6cncnc6)nc45)nc23)cc1 [Compound 55, 3-(4-(4-Fluorophenyl)-1H-imidazo[4,5-c]pyridin-2-yl)-5-(pyrimidin-5-yl)-1H-pyrazolo[4,3-b]pyridine] | 27.3% | 15.1% | – |
| > 10 µM | > 10 µM | > 10 µM | c1cc2[nH]c(-c3n[nH]c4ccc(-c5cn[nH]c5)nc34)nc2cn1 [Compound 651, 3-(1H-Imidazo[4,5-c]pyridin-2-yl)-5-(1H-pyrazol-4-yl)-1H-pyrazolo[4,3-b]pyridine] | 0% | 13.5% | 22.3% |
| > 10 µM | > 10 µM | > 10 µM | Nc1cncc(-c2ccc3[nH]nc(-c4nc5c(-c6ccccc6F)nccc5[nH]4)c3n2)c1 [Compound 59, 5-(3-(4-(2-Fluorophenyl)-1H-imidazo[4,5-c]pyridin-2-yl)-1H-pyrazolo[4,3-b]pyridin-5-yl)pyridin-3-amine] | 30.6% | 0% | 27.7% |
| > 10 µM | 0.926 µM | 1.58 µM | Clc1ccc(-c2nccc3[nH]c(-c4n[nH]c5ccc(-c6cncc(CN7CCCC7)c6)nc45)nc23)s1 [Compound 1049, 3-(4-(5-Chlorothiophen-2-yl)-1H-imidazo[4,5-c]pyridin-2-yl)-5-(5-(pyrrolidin-1-ylmethyl)pyridin-3-yl)-1H-pyrazolo [4,3-b]pyridine] | 13.2% | – | – |
| > 10 µM | > 10 µM | 0.235 µM | Cc1ncc(-c2ccc3[nH]nc(-c4nc5c(-c6cccc(F)c6)nccc5[nH]4)c3n2)s1 [Compound 1126, 5-(3-(4-(3-Fluorophenyl)-1H-imidazo[4,5-c]pyridin-2-yl)-1H-pyrazolo[4,3-b]pyridin-5-yl)-2-methylthiazole] | 0% | 26.6% | – |
| > 10 µM | 9.29 µM | 4.08 µM | O=C(Nc1cncc(-c2ccc3[nH]nc(-c4nc5c(-c6ccc(F)cc6)nccc5[nH]4)c3n2)c1)C1CCC1 [Compound 49, N-(5-(3-(4-(4-Fluorophenyl)-1H-imidazo[4,5-c]pyridin-2-yl)-1H-pyrazolo [4,3-b]pyridin-5-yl)pyridin-3-yl)cyclobutanecarboxamide] | 0% | – | – |
| > 10 µM | > 10 µM | 2.03 µM | CCCCC(=O)Nc1cncc(-c2ccc3[nH]nc(-c4nc5c(-c6ccoc6)nccc5[nH]4)c3n2)c1 [Compound 327, N-(5-(3-(4-(Furan-3-yl)-1H-imidazo[4,5-c]pyridin-2-yl)-1H-pyrazolo[4,3-b]pyridin-5-yl)pyridin-3-yl)pentanamide] | 22.5% | 10.1% | – |
| > 10 µM | 0.775 µM | 0.456 µM | Cn1cc(-c2ccc3[nH]nc(-c4nc5c(-c6cccs6)nccc5[nH]4)c3n2)cn1 [Compound 700, 5-(1-Methyl-1H-pyrazol-4-yl)-3-(4-(thiophen-2-yl)-1H-imidazo[4,5-c]pyridin-2-yl)-1H-pyrazolo[4,3-b]pyridine] | 0% | – | – |
| > 10 µM | > 10 µM | > 10 µM | c1cc2[nH]c(-c3n[nH]c4ccc(C5CCNCC5)nc34)nc2c(-c2ccc3c(c2)OCO3)n1 [Compound 1108, 3-(4-(Benzo[d][1,3]dioxol-5-yl)-1H-imidazo[4,5-c]pyridin-2-yl)-5-(piperidin-4-yl)-1H-pyrazolo[4,3-b]pyridine] | 22.8% | 3.8% | 11% |
| > 10 µM | > 10 µM | > 10 µM | O=C(Nc1cncc(-c2ccc3[nH]nc(-c4nc5c(N6CCCCC6)nccc5[nH]4)c3n2)c1)C1CC1 [Compound 188, N-(5-(3-(4-(Piperidin-1-yl)-1H-imidazo[4,5-c]pyridin-2-yl)-1H-pyrazolo [4,3-b]pyridin-5-yl)pyridin-3-yl)cyclopropanecarboxamide] | 15.9% | 10.5% | 19% |
| > 10 µM | > 10 µM | > 10 µM | CC(C)(C)CC(=O)Nc1cncc(-c2ccc3[nH]nc(-c4nc5c(-c6ccccc6F)nccc5[nH]4)c3n2)c1 [Compound 72, N-(5-(3-(4-(2-fluorophenyl)-1H-imidazo[4,5-c]pyridin-2-yl)-1H-pyrazolo [4,3-b]pyridin-5-yl)pyridin-3-yl)-3,3-dimethylbutanamide] | 26.1% | 4.1% | 8.1% |
| > 10 µM | > 10 µM | > 10 µM | O=C(Cc1ccccc1)Nc1cncc(-c2ccc3[nH]nc(-c4nc5cnccc5[nH]4)c3n2)c1 [Compound 262, N-(5-(3-(1H-imidazo[4,5-c]pyridin-2-yl)-1H-pyrazolo[4,3-b]pyridin-5-yl)pyridin-3-yl)-2-phenylacetamide] | 35.4% | 2.2% | 12.9% |
| > 10 µM | 8.48 µM | 3.98 µM | Cc1cn(-c2nccc3[nH]c(-c4n[nH]c5ccc(-c6cncc(NC(=O)CC(C)C)c6)nc45)nc23)cn1 [Compound 198] | 25.2% | – | – |
| 0.203 µM | > 10 µM | > 10 µM | c1cc(-c2ccc3[nH]nc(-c4nc5c(-c6ccncc6)nccc5[nH]4)c3n2)ccn1 [Compound 130, 5-(pyridin-4-yl)-3-(4-(pyridin-4-yl)-1H-imidazo[4,5-c]pyridin-2-yl)-1H-pyrazolo[4,3-b]pyridine] | – | 0% | 7.5% |
| > 10 µM | > 10 µM | > 10 µM | CCCC(=O)Nc1cncc(-c2ccc3[nH]nc(-c4nc5c(-c6ccncc6)nccc5[nH]4)c3n2)c1 [Compound 129, N-(5-(3-(4-(Pyridin-4-yl)-1H-imidazo[4,5-c]pyridin-2-yl)-1H-pyrazolo[4,3-b]pyridin-5-yl)pyridin-3-yl)butyramide] | 12.5% | 0% | 2.2% |
